In patent publication US20250304549A1, “HYDROXYAMIDE DERIVATIVE AND USE THEREOF” (SICHUAN HUIYU PHARMACEUTICAL CO., LTD., priority 2022, published 2025):
Where a name gives a salt, the structure may show the parent alone.

Assays:
[1] = tested on: NCI-H1417 cells; assay: In vitro cell inhibition assay - H1417 cell proliferation (CellTiter-Glo); format: cell-based; details: Homo sapiens, NCI-H1417, H1417 small cell lung cancer cell proliferation
Method in brief: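 Cells exposed to 8 compound concentrations (5-fold dilutions) in BEGM with 10% FBS for 7 days at 37° C., 5% CO2. Viable cells measured by CellTiter-Glo luminescence; inhibition versus no-inhibitor and no-cell controls, IC50 fitted.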

[2] = molecular target: HDAC8 (Homo sapiens (Human), UniProt Q9BY41); assay: In vitro enzyme inhibition assay - HDAC (HDAC-Glo I/II), HDAC8; format: biochemical; details: read-out: HDAC IC50 (nM) HDAC 8
Sequence of HDAC8 (Q9BY41 whole entry): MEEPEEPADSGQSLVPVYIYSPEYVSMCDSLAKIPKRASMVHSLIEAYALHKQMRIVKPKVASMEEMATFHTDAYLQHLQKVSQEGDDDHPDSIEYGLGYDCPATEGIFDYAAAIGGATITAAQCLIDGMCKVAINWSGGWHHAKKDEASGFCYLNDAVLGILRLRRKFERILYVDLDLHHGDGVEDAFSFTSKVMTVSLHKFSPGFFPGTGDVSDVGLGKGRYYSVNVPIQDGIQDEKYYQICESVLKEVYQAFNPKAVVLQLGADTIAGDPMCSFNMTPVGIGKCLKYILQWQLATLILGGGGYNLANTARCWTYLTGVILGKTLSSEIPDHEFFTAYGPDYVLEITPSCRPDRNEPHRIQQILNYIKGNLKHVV
Method in brief: (§1)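 Eight compound concentrations (5-fold gradient; 1 mM DMSO stock) were assayed by HDAC-Glo I/II luminescence. IC50 was obtained by four-parameter fitting.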

[3] = molecular target: HDAC1 (Homo sapiens (Human), UniProt Q13547); assay: In vitro enzyme inhibition assay - HDAC (HDAC-Glo I/II), HDAC1; format: biochemical; details: read-out: HDAC IC50 (nM) HDAC 1
Sequence of HDAC1 (Q13547 whole entry): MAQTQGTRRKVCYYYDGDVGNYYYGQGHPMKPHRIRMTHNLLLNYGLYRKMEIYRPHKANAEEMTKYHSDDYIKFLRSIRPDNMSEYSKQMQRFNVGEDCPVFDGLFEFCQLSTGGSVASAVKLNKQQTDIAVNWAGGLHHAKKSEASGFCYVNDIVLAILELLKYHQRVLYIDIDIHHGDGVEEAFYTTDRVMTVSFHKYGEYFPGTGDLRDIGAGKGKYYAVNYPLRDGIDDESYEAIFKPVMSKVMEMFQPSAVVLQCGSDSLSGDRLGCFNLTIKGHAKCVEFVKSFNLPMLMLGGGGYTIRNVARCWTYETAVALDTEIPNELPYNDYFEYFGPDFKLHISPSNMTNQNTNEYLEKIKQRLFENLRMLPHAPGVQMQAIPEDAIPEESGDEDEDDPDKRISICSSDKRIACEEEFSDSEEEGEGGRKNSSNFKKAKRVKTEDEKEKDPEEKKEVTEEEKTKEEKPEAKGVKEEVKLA
Method: 2. In Vitro Enzyme Inhibition Assay—HDAC
The effect of the compound on the enzymatic activity of pan-HDAC and two isoforms (HDAC1 and HDAC8) was examined using the HDAC-Glo I/II Assay and Screening System assay to assess the level of inhibition of HDAC protease activity and selectivity in each isoform. The proteins and detection reagents were from the HDAC-Glo™ I/II Assay and Screening System (Promega). A 1 mM stock solution of the compound was prepared in DMSO and diluted in a 5-fold gradient to create a series of 8 concentrations, and a specific volume of the highest concentration was diluted 25 times with HDAC Buffer to obtain 4× working solution of the compound. […] The 384-well plate was then read on a multifunctional microplate reader, with the Luminescence channel selected to record Luminescence values (RLU). The inhibition rate was calculated using the following formula: […]
Note: ‘Negative’ refers to the group without the inhibitor; ‘Blank’ refers to the group without the enzyme.
The IC50 value was calculated by fitting the inhibition rate by GraphPad Prism software, employing log (inhibitor) vs. response-Variable Slope (four parameters) model.

[4] = tested on: NCI-H526 cells; assay: In vitro cell inhibition assay - NCI-H526 cell proliferation (CellTiter-Glo); format: cell-based; details: Homo sapiens, NCI-H526, 120 h, H526 small cell lung cancer cell proliferation, 5 days
Method in brief: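 NCI-H526 cells plated at 1×10^3 per well overnight, then treated with 8 concentrations (5-fold dilutions) in RPMI-640 with 10% FBS for 5 days at 37° C., 5% CO2. Viable cells quantified by CellTiter-Glo luminescence; IC50 fitted from inhibition rates relative to no-inhibitor and no-cell controls.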

[5] = molecular target: LSD1 (Homo sapiens (Human), UniProt O60341); assay: In vitro enzyme inhibition assay - LSD1 (HTRF); format: biochemical
[6] = tested on: NCI-H69 cells; assay: In vitro cell inhibition assay - NCI-H69 cell proliferation (CellTiter-Glo); format: cell-based; details: Homo sapiens, NCI-H69, H69 small cell lung cancer cell proliferation
Method in brief: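 7-day exposure at 37° C., 5% CO2 to compounds serially diluted 5-fold (8 concentrations) in RPMI-640 containing 20% FBS, after overnight attachment at 1×10^3 cells/well. Read-out: CellTiter-Glo luminescence (RLU); IC50 from curve fit of inhibition rate.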

[7] = molecular target: pan-HDAC; assay: In vitro enzyme inhibition assay - HDAC (HDAC-Glo I/II), pan-HDAC; format: biochemical
Method in brief: as §1

Compound	IC50 [1] [nM]	IC50 [2] [nM]	IC50 [3] [nM]	IC50 [4] [nM]	IC50 [5] [nM]	IC50 [6] [nM]	IC50 [7] [nM]
N#Cc1ccc(-c2c(-c3ccc(N4CCOCC4)c(O)c3)cnc(N3CCC(NCc4ccc(/C=C/C(=O)NO)cc4)CC3)c2C#N)cc1F [Example 203, (E)-3-(4-(((1-(3-Cyano-4-(4-cyano-3-fluorophenyl)-5-(3-hydroxy-4-morpholinophenyl)pyridin-2-yl)piperidin-4-yl)amino)methyl)phenyl-N-hydroxyacrylamide formate]	1.99	25.3	1.58	12.3	1.03	9.38	1.39
COc1ccc(-c2cnc(N3CCC(NCc4ccc(CCC(=O)NO)c(F)c4)CC3)c(C#N)c2-c2ccc(C#N)c(F)c2)cc1O [Example 201, 3-(4-((1-(3-Cyano-4-(4-cyano-3-fluorophenyl)-5-(3-hydroxy-4-methoxyphenyl)pyridin-2-yl)piperidin-4-yl)amino)methyl)-2-fluorophenyl)-N-hydroxypropanamide formate]	3.33	438	4.81	20.5	0.22	56.4	7.71
N#Cc1ccc(-c2c(-c3ccc4cn[nH]c4c3)cnc(N3CCC(NCc4cnc(/C=C/C(=O)NO)nc4)CC3)c2C#N)cc1F [Example 184, (E)-3-(5-((1-(3-Cyano-4-(4-cyano-3-fluorophenyl)-5-(1H-indazol-6-yl)pyridin-2-yl)piperidin-4-yl)amino)methyl) pyrimidin-2-yl)-N-hydroxyacrylamide formate]	10.2	45.2	1.69	15.9	0.09	8.97	6.58
COc1ccc(-c2cnc(N3CCC(C)(NCc4cnc(/C=C/C(=O)NO)nc4)CC3)c(C#N)c2-c2ccc(C#N)c(F)c2)cc1O [Example 206, (E)-3-(5-(((1-(3-Cyano-4-(4-cyano-3-fluorophenyl)-5-(3-hydroxy-4-methoxyphenyl)pyridin-2-yl)-4-methylpiperidin-4-yl)amino)methyl)pyrimidin-2-yl)-N-hydroxyacrylamide formate]	6.21	32.5	32.9	106	2.03	94.7	11.5
N#Cc1ccc(-c2c(-c3ccc(N4CCOCC4)c(O)c3)cnc(N3CCC(NCc4ccc(/C=C/C(=O)NO)cc4)CC3)c2C#N)cn1 [Example 244, (E)-3-(4-(((1-(3′,6-Dicyano-5′-(3-hydroxy-4-morpholinophenyl)-[3,4′-bipyridin]-2′-yl)piperidin-4-yl)amino)methyl)phenyl)-N-hydroxyacrylamide formate]	2.83		0.51	16.2	0.98	1.66	1.54
COc1cc(F)c(-c2cnc(N3CCC(NCc4ccc(/C=C/C(=O)NO)cn4)CC3)c(C#N)c2-c2ccc(C#N)nc2)cc1O [Example 240, (E)-3-(6-(((1-(3′,6-Dicyano-5′-(2-fluoro-5-hydroxy-4-methoxyphenyl)-[3,4′-bipyridin]-2′-yl)piperidin-4-yl)amino)methyl)pyridin-3-yl)-N-hydroxyacrylamide formate]	9.62		1.85	60.9	0.82	24.8	4.73
N#Cc1ccc(-c2c(-c3ccc(Cl)c(O)c3)cnc(N3CCC(NCc4ccc(/C=C/C(=O)NO)cn4)CC3)c2C#N)cn1 [Example 238, (E)-3-(6-((1-(5′-(4-Chloro-3-hydroxyphenyl)-3′,6-dicyano-[3,4′-bipyridin]-2′-yl)piperidin-4-yl)amino)methyl) pyridin-3-yl)-N-hydroxyacrylamide formate]	25.7		1.62	56.1	3.48	28.7	4.05
N#Cc1ccc(-c2c(-c3ccc(Cl)c(O)c3)cnc(N3CCC(NCc4ccc(/C=C/C(=O)NO)cc4F)CC3)c2C#N)cn1 [Example 241, (E)-3-(4-(((1-(5′-(4-Chloro-3-hydroxyphenyl)-3′,6-dicyano-[3,4′-bipyridin]-2′-yl)piperidin-4-yl)amino)methyl)-3-fluorophenyl)-N-hydroxyacrylamide formate]	5.78		1.86	11.2	2.95	5.7	7.81
N#Cc1ccc(-c2c(-c3ccc(Cl)c(O)c3)cnc(N3CCC(NCc4ccc(/C=C/C(=O)NO)cc4)CC3)c2C#N)cn1 [Example 237, (E)-3-(4-((1-(5′-(4-Chloro-3-hydroxyphenyl)-3′,6-dicyano-[3,4′-bipyridin]-2′-yl)piperidin-4-yl)amino)methyl) phenyl)-N-hydroxyacrylamide formate]	4.06		1.29	4.4	1.75	3.27	3.37

Now from value to compound:

IC50 [1] [nM]	IC50 [2] [nM]	IC50 [3] [nM]	IC50 [4] [nM]	IC50 [5] [nM]	IC50 [6] [nM]	IC50 [7] [nM]	Compound
6.31	130	13.4	27.8	4.11	39.2	7.8	CC(C)(O)COc1ccc(-c2cnc(N3CCC(NCc4ccc(/C=C/C(=O)NO)c(C#N)c4)CC3)c(C#N)c2-c2ccc(C#N)c(F)c2)cc1O [Example 189, (E)-3-(2-Cyano-4-((1-(3-cyano-4-(4-cyano-3-fluorophenyl)-5-(3-hydroxy-4-(2-hydroxy-2-methylpropoxy)phenyl)pyridin-2-yl)piperidin-4-yl)amino)methyl) phenyl)-N-hydroxyacrylamide formate]
0.63	67.2	4.85	21.2	0.4	23.7	6.35	CC(C)(O)COc1ccc(-c2cnc(N3CCC(NCc4ccc(/C=C(\F)C(=O)NO)cc4)CC3)c(C#N)c2-c2ccc(C#N)c(F)c2)cc1O [Example 198, (Z)-3-(4-(((1-(3-Cyano-4-(4-cyano-3-fluorophenyl)-5-(3-hydroxy-4-(2-hydroxy-2-methylpropoxy)phenyl)pyridin-2-yl)piperidin-4-yl)amino)methyl)phenyl)-2-fluoro-N-hydroxyacrylamide formate]
6.86	100	3.08	39.2	1.91	25.2	4.37	CC(C)(O)COc1ccc(-c2cnc(N3CCC(NCc4ccc(/C=C/C(=O)NO)cn4)CC3)c(C#N)c2-c2ccc(C#N)c(F)c2)cc1O [Example 205, (E)-3-(6-(((1-(3-Cyano-4-(4-cyano-3-fluorophenyl)-5-(3-hydroxy-4-(2-hydroxy-2-methylpropoxy)phenyl)pyridin-2-yl)piperidin-4-yl)amino)methyl)pyridin-3-yl)-N-hydroxyacrylamide formate]
5.06		0.73	20.9	13.6	11.1	0.25	COc1ccc(-c2cnc(N3CCC(NCc4ccc(/C=C/C(=O)NO)nc4)CC3)c(CC#N)c2-c2ccc(C#N)c(F)c2)cc1O [Example 217, (E)-3-(5-(((1-(4-(4-cyano-3-fluorophenyl)-3-(cyanomethyl)-5-(3-hydroxy-4-methoxyphenyl)pyridin-2-yl)piperidin-4-yl)amino)methyl)pyridin-2-yl)-N-hydroxyacrylamide formate]
13.4		1.77	35.6	10.2	15.3	1.01	CC(C)(O)COc1ccc(-c2cnc(N3CCC(NCc4ccc(/C=C/C(=O)NO)cc4)CC3)c(CC#N)c2-c2ccc(C#N)c(F)c2)cc1O [Example 218, (E)-3-(4-(((1-(4-(4-Cyano-3-fluorophenyl)-3-(cyanomethyl)-5-(3-hydroxy-4-(2-hydroxy-2-methylpropoxy)phenyl)pyridin-2-yl)piperidin-4-yl)amino)methyl)phenyl)-N-hydroxyacrylamide formate]
